Values of other authors as cited in patent publication US8080517B2, “Cell-permeable peptide inhibitors of the JNK signal transduction pathway” (Xigen SA, priority 2005, dated 2011).

Columns and labels:
[1] = test system: primary embryonic cultures and differentiated PC12 cells; conditions: after trophic withdrawal; also in mice treated with 1-methyl-4-phenyl tetrahydropyridine; cited from earlier work
[2] = test system: chick embryonic dorsal root ganglion, sympathetic, ciliary and motor neurons; conditions: cited from earlier work
[3] = transient global ischemia; cited from earlier work

| Compound | neuronal survival [1] | long term-survival of cultured neurons [2] | delayed loss of hippocampal CA1 neurons [3] |
| --- | --- | --- | --- |
| CCSCc1ccc2c(c1)c1c3c(c4c5cc(CSCC)ccc5n5c4c1n2[C@H]1C[C@](O)(C(=O)OC)[C@]5(C)O1)CNC3=O [CEP-1347] | promotes neuronal survival at dosages that inhibit activation of the c-Jun amino-terminal kinases (JNKs) | can promote long term-survival |  |
| N#CC(c1ccnc(NCCc2cccnc2)n1)c1nc2ccccc2s1 (stereo not drawn) [AS601245] |  |  | significant protection against the delayed loss of hippocampal CA1 neurons |
